# According to paper PMC5860131, “Identification of natural products as novel ligands for the human 5-HT2C receptor” (Biophysics Reports, 2018):
# How the values were obtained:
# 5-HT2A receptor = molecular target: T1, 5-HT2A receptor (Homo sapiens, UniProt P28223); experiment: Ca2+ mobilization assay (Fluo-4, FLIPR), HEK 293T cells stably transfected with 5-HT2A; format: cell-based
# T1 construct: expressed in transfected cells; host or cells: HEK 293T, stably transfected
# Text: (§1) The 5-HT2C receptor mainly couples to Gαq proteins. The activated 5-HT2C receptor transmits the signals from the extracellular to the intercellular side using DAG/IP3 (diacyl glycerol/inositol 1,4,5-trisphosphate) as its second massagers (Hannon and Hoyer [2008]). IP3 stimulates the endoplasmic reticulum to release calcium ions into the cytoplasm, which causes the increase of calcium concentration in cytosol. Therefore, calcium mobilization assay is commonly applied to understand how unknown small molecule ligands of 5-HT2C receptor modulate cellular signal transductions. In this case, Fluo-4 Direct dye was used as a fluorescence indicator to detect calcium flux in G protein-coupled receptor expressed cells. The fold of maximum response over average of basal reading is plotted against compound concentration to determine the potency of the compounds (Fig. 3). […]. […] After the dye loaded, cells were placed in a FLIPR^TETRA fluorescence imaging plate reader (Molecular Devices); drug dilutions, prepared at 3× final concentration in FLIPR buffer and aliquotted into 384-well plates, were also added to the FLIPR^TETRA. The fluidics module and plate reader of the FLIPR^TETRA were programmed to read baseline fluorescence for 10 s (1 read/s), then to add 10 μl of drug/well and to read for 6 min (1 read/s). […]
# 5-HT2B receptor = molecular target: T2, 5-HT2B receptor (Homo sapiens, UniProt P41595); experiment: Ca2+ mobilization assay (Fluo-4, FLIPR), HEK 293T cells stably transfected with 5-HT2B; format: cell-based
# T2 construct: expressed in transfected cells; host or cells: HEK 293T, stably transfected
# Text: as §1
# [1] = test system: cortical pyramidal neurons; experiment: Whole-cell patch clamp recording of spontaneous synaptic current (SPSC) in brain slices; format: cell-based; details: 30 μmol/L compound incubation, 10 μmol/L 5-HT; mouse brain slices
# Description: 5-HT receptors play important roles in central and peripheral nervous systems. Malfunctions of these receptors have been linked to many neural disorders such as depression and psychosis. The effect of (–)-crebanine on changes in 5-HT induced synaptic transmission was evaluated by electrophysiological recording of mouse brain slices (Jang et al. [2012]). The spontaneous synaptic current (SPSC) of cortical pyramidal neurons was recorded in whole cell mode.
# Cortical slices from ICR mouse of both genders (15–21 days) were prepared for electrophysiological recording. In brief, the animals were decapitated and brains were placed in cold sucrose artificial cerebrospinal fluid (sucrose-ASCF, in mmol/L: sucrose 213, KCl 2.5, NaH2PO4 1.25, NaHCO3 26, D-glucose 10, MgSO4 2, CaCl2 2, pH 7.4, 0–4 °C, saturated with 95% O2 and 5% CO2). The brains were cut into 280 or 300 μm slices with a vibratome (Leica VT1200S, Germany); slices were then incubated with ACSF (in mmol/L: NaCl 126, KCl 2.5, NaH2PO4 1.25, NaHCO3 26, D-glucose 25, MgSO4 2, CaCl2 2, pH 7.4, saturated with 95% O2 and 5% CO2) at room temperature for 1 h.
# A whole-cell patch clamp technique was used. […] Activity of cortical pyramidal neurons was recorded using an amplifier (HEKA EPC 10 USB, Germany) in the voltage clamp mode. […]
# [2] = molecular target: T3, 5-HT2C receptor L209^ECL2F (Homo sapiens, UniProt P28335, DEL255-298/G251D/H250E/H252N/INS299[…]/L209F/L248D/M247A/M300L/T253W); experiment: CPM thermal stability assay, 5-HT2C mutant L209F; format: binding; details: n = 2
# T3 construct: the N- and C-terminals were truncated by 39 and 65 residues, respectively; PreScission protease site + 10× His (C); made in house
# Text: Based on the binding poses predicted by molecular docking, single-point mutations were designed to test their impact on ligand binding. Mutations of several residues include the highly conserved Asp134^3.32, which is known to cause 5-HT1B or 5-HT2B receptors to abolish the monoamine ligand binding as reported in the literature (Wang et al. [2013]). In this study, residues forming hydrophobic interactions with the substitution groups on the aporphine scaffold of (–)-crebanine (1) were selected for mutation as well and they are Thr139^3.37, Gly218^5.42, Ala222^5.46, and Leu209^ECL2. Effects of those mutations were tested with the CPM assay and the affinity MS assay (Table 2). In the affinity MS experiment, relative ligand-binding capacity (represented by binding %) to different mutants and the wild-type receptor was compared. […]
# Purified 5-HT2C receptor protein was thoroughly mixed with CPM fluorescent dyes. […] Fluorescence signals, wavelength 387 nm (excitation) and 463 nm (emission), were monitored (Alexandrov et al. [2008]). […] The thermal denaturation of the samples was evaluated using the scatter plot curve, where the horizontal coordinates represented temperature and the vertical coordinates indicated normalized fluorescence intensity recorded for a particular temperature. […]
# T1 sequence (P28223 whole entry): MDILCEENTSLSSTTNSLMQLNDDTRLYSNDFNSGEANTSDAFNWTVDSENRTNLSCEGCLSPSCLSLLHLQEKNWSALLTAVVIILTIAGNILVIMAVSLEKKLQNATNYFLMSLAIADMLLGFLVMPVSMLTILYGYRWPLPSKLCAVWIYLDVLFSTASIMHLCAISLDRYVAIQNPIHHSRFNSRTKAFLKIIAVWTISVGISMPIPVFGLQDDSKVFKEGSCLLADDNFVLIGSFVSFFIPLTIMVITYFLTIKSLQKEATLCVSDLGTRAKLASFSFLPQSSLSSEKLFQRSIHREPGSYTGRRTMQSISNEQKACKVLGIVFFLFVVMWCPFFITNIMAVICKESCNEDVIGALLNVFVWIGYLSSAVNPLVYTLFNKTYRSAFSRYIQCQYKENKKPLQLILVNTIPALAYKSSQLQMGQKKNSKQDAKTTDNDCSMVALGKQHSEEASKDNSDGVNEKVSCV
# T3 sequence (P28335 with tags, fused parts or gaps with the stated changes): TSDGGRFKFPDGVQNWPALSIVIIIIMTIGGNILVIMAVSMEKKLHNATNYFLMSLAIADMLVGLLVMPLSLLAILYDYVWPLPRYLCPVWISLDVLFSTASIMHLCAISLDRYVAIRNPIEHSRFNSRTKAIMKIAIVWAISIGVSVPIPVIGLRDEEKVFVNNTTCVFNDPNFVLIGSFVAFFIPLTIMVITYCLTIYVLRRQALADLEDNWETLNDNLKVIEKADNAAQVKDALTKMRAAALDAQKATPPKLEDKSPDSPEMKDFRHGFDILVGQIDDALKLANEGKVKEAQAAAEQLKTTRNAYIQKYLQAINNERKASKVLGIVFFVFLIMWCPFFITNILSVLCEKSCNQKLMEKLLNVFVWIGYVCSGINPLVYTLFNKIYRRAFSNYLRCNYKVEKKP
# T2 sequence (P41595 whole entry): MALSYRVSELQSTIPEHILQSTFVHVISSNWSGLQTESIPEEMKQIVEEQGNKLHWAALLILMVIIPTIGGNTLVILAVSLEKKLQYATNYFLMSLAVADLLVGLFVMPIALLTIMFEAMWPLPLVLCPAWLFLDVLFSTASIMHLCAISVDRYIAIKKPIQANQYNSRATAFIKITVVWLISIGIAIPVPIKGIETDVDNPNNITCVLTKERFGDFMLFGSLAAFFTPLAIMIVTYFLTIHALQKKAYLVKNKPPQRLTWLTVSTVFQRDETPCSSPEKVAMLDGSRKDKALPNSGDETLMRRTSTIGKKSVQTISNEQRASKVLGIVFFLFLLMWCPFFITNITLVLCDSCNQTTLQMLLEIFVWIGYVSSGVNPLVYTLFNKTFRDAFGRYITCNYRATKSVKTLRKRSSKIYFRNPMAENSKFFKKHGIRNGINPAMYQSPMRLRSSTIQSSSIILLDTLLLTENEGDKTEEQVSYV
smiles,measurement,setting,value
"COc1ccc2c(c1OC)C[C@@H]1c3c(cc4c(c3-2)OCO4)CCN1C [Compound 1, (–)-crebanine]",IC50,5-HT2A receptor,564 nM
same,IC50,5-HT2B receptor,1690 nM
same,effect on 5-HT induced SPSC,[1],significantly attenuated
same,(–)-Crebanine/CPM (Tm),[2],55.46 °C
